Laboratory results published in patent US9044142B2, “Surgical optical systems for detecting brain tumors” (Carl Zeiss Meditec AG, priority 2010, dated 2015).

Legend:
GL261-luc glioma cells [1] = assay: Intraoperative confocal endomicroscopy of ICG distribution in GL261-luc glioma mouse model; type: in vivo; conditions: 0.4 mg/kg intravenously, mice
Description: Thirty mice implanted with glioblastoma cells underwent craniectomies for exposure of tumors 14 days implantation. Tumors were clearly visible macroscopically and extended from cortical surface to deep basal brain structures. ICG was then administered using 0.4 mg/kg, equivalent to a standard single dose for humans (see, e.g., I. Roberts et al., Lancet 342, (1993)). […] Other regions presented a complex mixture of these patterns, with mostly normal-appearing brain punctuated by large pleomorphic cells consistent with an infiltrative margin or satellite tumor cell clusters surrounded by brain tissue. Importantly, patterns consistent with tumor morphology were also seen in brain tissue neighboring the tumor that appeared macroscopically normal as viewed via the surgical microscope. Critically, individual tumor cells within brain tissue could be identified within 475×475 μm field of view and a definitive tumor border delimited (FIGS. 2A-2D).
(§1) The GL261 cell line was obtained from the Division of Cancer Treatment and Diagnosis (DCTD) of the National Cancer Institute (NCl), Frederick, Md. […] The morphological, biochemical and growth characteristics of the GL261 mouse brain tumor model have been described elsewhere (see, e.g., M. Candolfi et al., J Neurooncol 85, 133 (November, 2007) and T. Szatmari et al., Cancer Sci 97, 546 (June, 2006)). To facilitate a quantitative measurement of the tumor growth rate, GL261 cells were made bioluminescent using the Lentiphos™ HT System (Clontech Laboratories, Inc., Mountain View, Calif.) with the Lenti-X™ HT Packaging Mix (Clontech Laboratories, Inc.) and the FUW-GL plasmid (a generous gift from the laboratory of J. B. Rubin, MD, PhD). The resulting GL261-luc cells were grown in Dulbecco's modified eagle's medium (DMEM, Invitrogen, Carlsbad, Calif.) supplemented with 10% tetracycline-free fetal calf serum (Clontech Laboratories, Inc) at 37° C. with 5% CO2. Cultured cells were harvested by trypsinization, washed once in phosphate-buffered saline (Invitrogen, Carlsbad, Calif.), and resuspended in DMEM without serum at a concentration of 1×10^7 cells/mL.
Animals were anesthetized by intraperitoneal injection of a mixture of 10 mg/kg xylazine and 80 mg/kg ketamine (Wyeth, Madison, N.J.). A 10-mm incision was made starting between the animal's eyes, exposing the bregma. A bur hole was made 0.1 mm posterior to the bregma and 2.3 mm right of the midline using a small animal stereotactic headframe (Model 900, David Kopf Instruments, Tujunga, Calif.). […]
This study was conducted in two main phases. The purpose of the first phase was to validate the use of ICG fluorescence in both intraoperative NIR macroscopic and miniaturized confocal endomicroscopic techniques for the identification of brain tumors in the mouse model. […]

[2] = cited from earlier work
[3] = humans; cited from earlier work
GL261-luc glioma cells [4] = assay: Intraoperative NIR fluorescence macroscopy of ICG in GL261-luc glioma mouse model; type: in vivo
Source text: as §1
Animals were anesthetized by intraperitoneal injection of a mixture of 10 mg/kg xylazine and 80 mg/kg ketamine (Wyeth, Madison, N.J.). A 10-mm incision was made starting between the animal's eyes, exposing the bregma. […]
This study was conducted in two main phases. The purpose of the first phase was to validate the use of ICG fluorescence in both intraoperative NIR macroscopic and miniaturized confocal endomicroscopic techniques for the identification of brain tumors in the mouse model. […] Several intraoperative fluorescence macroscopic video loops, confocal images, and histological specimens were collected and analyzed from each mouse. […] Two cohorts of animals were used in the second phase: (1) six mice were used for intraoperative fluorescence macroscopy and (2) six mice were used for intraoperative confocal endomicroscopy. […]

CC1(C)C(/C=C/C=C/C=C/C=C2\N(CCCCS(=O)(=O)O)c3ccc4ccccc4c3C2(C)C)=[N+](CCCCS(=O)(=O)[O-])c2ccc3ccccc3c21 [ICG, Indocyanine green]
ICG distribution in normal-appearing brain distant from the tumor (confocal endomicroscopy) (GL261-luc glioma cells [1]): predominantly intravascular ICG distribution
ICG distribution within obvious tumor tissue (confocal endomicroscopy) (GL261-luc glioma cells [1]): extravascular ICG concentrated in clusters of cellular structures
ICG fluorescence of tumor cells (confocal endomicroscopy) (GL261-luc glioma cells [1]; fifteen minutes after ICG injection): entire tumor mass was saturated with ICG
ICG fluorescence of tumor cells (confocal endomicroscopy) (GL261-luc glioma cells [1]; immediately after ICG injection): fluorescence was seen only in a few clusters of tumor cells
fraction of originally injected volume detectable in the blood ([2]; after 10 minutes): only a small fraction
binding to globulins, preferentially to α1-lipoproteins ([2]; after intravenous injection): almost completely
main source of clearance ([2]; in vivo): hepatic elimination
metabolism in the body ([2]; in vivo): not metabolized
toxicity [3]: one of the least toxic substances ever administered to humans
intensity of macroscopic fluorescence in the central region of tumor (GL261-luc glioma cells [4]; 15 minutes after injection versus one minute): increased
macroscopic tumor visibility with NIR light (GL261-luc glioma cells [4]; after ICG injection, tumor 14 days after implantation, mice): macroscopically visible
macroscopic ICG fluorescence in vessels (GL261-luc glioma cells [4]; immediately after intravenous injection): could be observed in major vessels
